{"source": "paper PMC5746060", "about": "“General and Modular Strategy for Designing Potent, Selective, and Pharmacologically Compliant Inhibitors of Rhomboid Proteases” (Cell Chemical Biology, 2017)", "biological_target": "T1, endogenous YqgP (Bacillus subtilis, UniProt P54493)", "T1 construct": "cleaved to about 75% conversion by the endogenous YqgP; endogenous in cells; host or cells: Bacillus subtilis 168 ydcA::neo, xkdE::substrate (BS87)", "T1 sequence (P54493 whole entry)": "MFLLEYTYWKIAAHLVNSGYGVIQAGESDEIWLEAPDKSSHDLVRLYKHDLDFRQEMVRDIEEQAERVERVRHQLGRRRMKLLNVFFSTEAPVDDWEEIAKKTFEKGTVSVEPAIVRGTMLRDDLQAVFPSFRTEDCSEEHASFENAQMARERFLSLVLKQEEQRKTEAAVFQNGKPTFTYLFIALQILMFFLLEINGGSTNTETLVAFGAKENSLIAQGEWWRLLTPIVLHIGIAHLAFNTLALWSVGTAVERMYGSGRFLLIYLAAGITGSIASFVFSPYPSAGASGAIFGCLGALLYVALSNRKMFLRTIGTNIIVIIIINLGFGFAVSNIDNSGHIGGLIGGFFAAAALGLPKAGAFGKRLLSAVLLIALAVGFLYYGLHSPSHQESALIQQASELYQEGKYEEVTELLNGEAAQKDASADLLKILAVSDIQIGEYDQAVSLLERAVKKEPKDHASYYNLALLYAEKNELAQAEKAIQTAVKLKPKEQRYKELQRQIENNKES", "assay": "inhibition of endogenous YqgP in live B. subtilis (LacYTM2 substrate cleavage, western blot)", "type": "cell-based, Bacillus subtilis 168", "conditions": "for % substrate conversion: YqgP WT (BS87)", "method": "The substrate MBP-FLAG-LacYTM2-Trx ([Strisovsky et al., 2009]) was expressed in wild-type E. coli NR698 with genetically permeabilized outer membrane ([Ruiz et al., 2005]) in the presence of increasing concentrations of inhibitors as described in STAR Methods. Substrate cleavage was measured in cell lysates by immunoblotting for FLAG and quantified using near-infrared fluorescence. The reported in vivo IC50 values are best-fit means with SD representative of 2–3 measurements. DMSO, dimethylsulfoxide vehicle control; KO, E. coli glpG::tet. […] The substrate AmyESP-MBP-FLAG-LacYTM2-Trx-HA was expressed in Bacillus subtilis 168 (ydcA::neo, xdkE::AmyESP-MBP-LacYTM2-Trx(erm, lin)) (BS87) in the presence of increasing concentrations of inhibitors as described in STAR Methods. Substrate cleavage was detected in cell lysates by immunoblotting for FLAG and detection by near-infrared fluorescence. […] This treatment was necessary because the specific cleavage product could not be resolved sufficiently well from the non-specific bands to be integrated separately. DMSO, dimethylsulfoxide vehicle control; YqgP KO, Bacillus subtilis 168 (ydcA::neo, yqgP::tet, xdkE::AmyESP-MBP-LacYTM2-Trx(erm, lin)) (BS88).\nWe then extended the range of organisms to Bacillus subtilis, a representative of Gram-positive bacteria, which have a thick cell wall and include major pathogens such as Staphylococcus, Listeria, Streptococcus, and others. Since the endogenous substrate of the B. subtilis rhomboid protease YqgP is unknown, and no robust and rescuable phenotypes have been reported for YqgP, we focused on inhibition of cleavage of a model substrate.\nFor measuring the inhibition of YqgP in vivo, the B. subtilis strains BS87 and its yqgP knock-out derivative BS88, generated in this work (see Constructs and Cloning section), were used as follows. The chimeric LacYTM2 substrate AmyEsp-MBP-FLAG-LacYTM2-Trx-HA (this work) was expressed under control of xylose promoter from the xdkE genomic locus. Fresh LB medium, supplemented with appropriate antibiotic, was inoculated with a few colonies of the B. subtilis strain grown overnight on selective LB agar plate and pre-culture was grown for 2 h at 37°C to OD600 = 1. Pre-culture was then diluted with fresh LB medium to the density of OD600 = 0.05. At this point, the expression of LacYTM2 was induced by adding 1% (w/v) D-(+)-xylose (Sigma), rhomboid inhibitors were added at a range of concentrations, and the cultures were further incubated for 2.5 h at 37°C (reaching OD600 ∼ 1). Steady-state conversion of the substrate was evaluated by western blotting with near-infrared fluorescence detection as described ([Ticha et al., 2017]), substracting the intensity of non-specific bands, closely co-migrating with the specific rhomboid-formed N-terminal cleavage product of the substrate.", "note": "Starred links: 1 amine or outer side, 2 acyl side, 3 side chain; linkers in the order of their positions; H or OH if unused. Non-standard residues stand in square brackets, D forms with d. Residues, ends and D or L forms follow the SMILES beside them. *: point of attachment. NH(4-phenylbutyl) = c1ccc(CCCCN*)cc1; X1 = C[C@H](N[*:1])C(=O)C(=O)[*:2]"}
{"compound": "CC(=O)N[C@@H](CCCNC(=N)N)C(=O)N[C@H](C(=O)N[C@@H](CCCNC(=N)N)C(=O)N[C@@H](Cc1c[nH]cn1)C(=O)N[C@@H](C)C(=O)C(=O)NCCCCc1ccccc1)C(C)C", "note": "[compound 11, Ac-RVRHA-CONH-phenylbutyl] (Ac-RVRH[X1]-{NH(4-phenylbutyl)})", "values": [{"measurement": "IC50", "value": "5 to 10", "unit": "nM"}, {"measurement": "% substrate conversion", "setting": "0.6 nM compound 11", "value": 73, "unit": "%"}, {"measurement": "% substrate conversion", "setting": "1.2 nM compound 11", "value": 67, "unit": "%"}, {"measurement": "% substrate conversion", "setting": "2.5 nM compound 11", "value": 54, "unit": "%"}, {"measurement": "% substrate conversion", "setting": "5 nM compound 11", "value": 52, "unit": "%"}, {"measurement": "% substrate conversion", "setting": "10 nM compound 11", "value": 7, "unit": "%"}, {"measurement": "% substrate conversion", "setting": "20 nM compound 11", "value": 4, "unit": "%"}, {"measurement": "% substrate conversion", "setting": "50 nM compound 11", "value": 0, "unit": "%"}, {"measurement": "inhibition of substrate cleavage", "setting": "50 nM in growth media", "value": "completely inhibited"}]}
